Results from patent publication US20250129027A1 (APOGEE PHARMACEUTICALS, INC., priority 2023, published 2025).
Values after ≈ are worked out from the molar mass of the structure shown. Like-named read-outs stand apart in the source and are kept apart here.

What was measured:
[1] = Aqueous solubility in PBS buffer pH 7.4 (LC-MS); type: physicochemical; conditions: phosphate buffer, kinetic from dmso stock, PBS buffer pH 7.4, room temperature, spiked at 100 μM from DMSO stock
Description: Compounds as described herewith were analyzed for their aqueous solubility.
The aqueous solubility of compounds were determined using standard protocols. To illustrate the experimental protocol, the analysis of a representative compound is described. Exemplary compound of Example 158 (MW: 380.4 g/mol) was analyzed in a buffer system at specified pH (phosphate buffer, pH 7.4). This was accomplished by spiking a DMSO stock solution of the test compound at a final concentration of 100 μM in buffer.
Solubility calculation: This is a quantitative assay. The mixture at the end of the assay is filtered by 0.22 micron syringe filter and after 5× dilution in diluent, it was analyzed versus a calibration curve using LC-MS.

[2] = Plasma stability (LC-MS/MS, % parent compound remaining, half-life); type: in vitro ADME; conditions: human plasma; for half-life at 1 μM: 37° C., 0-240 mins, read-out: Human Plasma Stability (t1/2, min); for plasma stability and/or aqueous solubility compared to reference compound URB597: see Table 5
Description: Exemplary compounds described herewith were assayed for plasma stability (various species).
Plasma was removed from deep freezer and allowed to thaw at room temperature (or at 37° C. if needed). Plasma was then centrifuged at 4,000 rpm at RT for 10 min and supernatant was collected and used for the assay: • Drug test tubes: 297 μL plasma/drug test tube, duplicate/drug. • Blank test tubes: 297 μL plasma/Blank test tube, duplicate, too. (Optional, if assay system is stable and consistent) • T0 plasma tube: […] X No. of total sample tubes+50 μL extra for T0 extraction. • (Note: equivalent proportion of solvent mixture as added in drug test tubes will be added before T0 extraction!)
Take out the pre-warmed plasma tubes from the 37° C. incubator. Add 3 μL of 100 μM stock solution (or, equivalent proportion of the solvent mixture to T0 plasma tube for T0 extraction) to each corresponding sample tubes in order, vortex gently (3×) to mix. Finish the sample tubes orderly and quickly, then transfer them to the Thermomixer (program & 37° C. ready), and start the Thermomixer. Record starting time on paper & start the timer for 15 min for the 1st sampling time point.
Now add the equivalent amount of solvent mixture to the T0 plasma tube, mix, and transfer 50 μL plasma to each of the T0 extracting tubes, vortex 20s and placed on ice. Vortex 10s again before centrifuging the samples at 14,000 rpm for 5 min at 4° C.
Repeat the above procedures at each time point (15, 30, 60, 120, 240 min) by transferring 50 μL plasma samples from the testing tubes to the corresponding extracting tubes, in the same order and time scheme as in the addition of the drug to the plasma samples at the beginning of the study.
• Kel=Slope of LN % PCR vs time
Half life (t½)=0.693/Kel (1)

human recombinant MAGL = human recombinant MAGL (Homo sapiens (Human), UniProt Q99685); assay: In vitro inhibition of MAGL activity (inhibitor screening kit, 4-nitrophenylacetate); type: biochemical; conditions: human recombinant MAGL
human recombinant MAGL, sequence (Q99685 whole entry): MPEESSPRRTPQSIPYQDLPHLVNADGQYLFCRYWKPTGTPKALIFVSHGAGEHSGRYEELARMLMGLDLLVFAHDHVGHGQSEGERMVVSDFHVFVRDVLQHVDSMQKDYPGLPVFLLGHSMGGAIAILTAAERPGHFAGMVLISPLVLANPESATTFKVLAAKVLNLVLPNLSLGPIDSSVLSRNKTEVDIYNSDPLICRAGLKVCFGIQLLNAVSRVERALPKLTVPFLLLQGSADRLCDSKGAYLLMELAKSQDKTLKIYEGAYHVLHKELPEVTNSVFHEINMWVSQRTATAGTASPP
In short: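 Percent inhibition derived from absorbance (405-412 nm) of treated wells relative to untreated enzyme control. Human recombinant MAGL with 4-nitrophenylacetate substrate, whose cleavage yields yellow 4-nitrophenol.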

human recombinant FAAH = human recombinant FAAH (Homo sapiens (Human), UniProt O00519); assay: In vitro inhibition of FAAH activity (fluorescent inhibitor screening kit, AMC arachidonoyl amide); type: biochemical
human recombinant FAAH, sequence (O00519 whole entry): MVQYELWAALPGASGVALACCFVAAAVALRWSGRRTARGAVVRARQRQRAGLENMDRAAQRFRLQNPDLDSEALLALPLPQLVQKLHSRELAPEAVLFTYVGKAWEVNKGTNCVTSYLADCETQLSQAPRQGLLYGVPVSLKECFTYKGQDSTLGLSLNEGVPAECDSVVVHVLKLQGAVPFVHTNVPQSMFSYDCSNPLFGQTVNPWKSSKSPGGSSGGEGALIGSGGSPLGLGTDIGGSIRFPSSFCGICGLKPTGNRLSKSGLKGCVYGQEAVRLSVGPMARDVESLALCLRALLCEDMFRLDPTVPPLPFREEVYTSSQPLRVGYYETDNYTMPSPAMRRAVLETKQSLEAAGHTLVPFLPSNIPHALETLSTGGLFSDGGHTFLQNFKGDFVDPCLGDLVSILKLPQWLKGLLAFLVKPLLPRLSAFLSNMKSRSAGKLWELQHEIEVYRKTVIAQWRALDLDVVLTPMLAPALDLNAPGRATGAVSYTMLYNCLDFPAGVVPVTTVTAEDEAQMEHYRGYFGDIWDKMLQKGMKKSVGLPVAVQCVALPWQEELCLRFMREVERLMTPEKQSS
In short: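 Fluorogenic kit assay: AMC arachidonoyl amide is cleaved by human recombinant FAAH, read at 340-360/450-465 nm. Percent inhibition versus non-treated control; IC50 values derived from multiple compound concentrations where tested.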

[3] = Pharmacokinetic study in rats, IV and oral gavage, with brain penetration; type: in vivo, rat
Description: In pharmacokinetic (PK) studies, animals were administered compounds of the present disclosure and PK parameters were measured. Rats (male, Sprague Dawley) were administered compound of Example 158 at a dose of 1.0 mg/kg intravenously (IV) or 10 mg/kg via oral gavage (PO). Blood samples were taken at t=0.083, 0.25. 0.5, 1, 2, 4, 6, 8 and 24 h post-dose and the plasma was analyzed for concentration of test article (compound of Example 158). Using standard analytical methodology (HPLC analysis), the following parameters were obtained:
Rats were administered compound of Example 172 at a dose of 1.0 mg/kg intravenously (IV) or 10 mg/kg via oral gavage (PO). Using standard analytical methodology (HPLC analysis), the following parameters were obtained: […]

[4] = FAAH, values as listed in Table 5, read-out: IC50
[5] = human recombinant FAAH, read-out: Inhibition on FAAH activity (IC50)

In the case of `COc1ccc(OC(=O)NC2CCCCCC2)cc1-c1cncc(-c2ncco2)c1` [Example 83, 4-methoxy-3-(5-(oxazol-2-yl)pyridin-3-yl)phenyl cycloheptylcarbamate], the solubility [1] is reported as 16.3 µM (≈ 6.64 µg/mL), the half-life at 1 μM [2] is reported as 194 min and the “plasma stability and/or aqueous solubility compared to reference compound URB597” value [2] is reported as “improved plasma stability, improved aqueous solubility, or improved plasma stability and aqueous solubility”. The IC50 (human recombinant MAGL) was greater than 10000 nM, the IC50 (human recombinant FAAH; [4]) was 111 nM and the IC50 (human recombinant FAAH; [5]) was 10 to 100 nM.

For `O=C(NC1CCCCCC1)Oc1ccc(F)c(-c2cncc(-c3ncco3)c2)c1` [Example 87, 4-fluoro-3-(5-(oxazol-2-yl)pyridin-3-yl)phenyl cycloheptylcarbamate], the solubility [1] was 8.6 µM (≈ 3.4 µg/mL), the half-life at 1 μM [2] was 7 min and the IC50 (human recombinant MAGL) was greater than 10000 nM. The IC50 (human recombinant FAAH; [4]) was 23.9 nM and the IC50 (human recombinant FAAH; [5]) was 23.9 nM.

With `O=C(NC1CCCCCC1)Oc1ccc(OC(F)(F)F)c(-c2cncc(-c3ncco3)c2)c1` [Example 91, 3-(5-(oxazol-2-yl)pyridin-3-yl)-4-(trifluoromethoxy)phenyl cycloheptylcarbamate] the solubility [1] was 2.4 µM (≈ 1.11 µg/mL), the half-life at 1 μM [2] was 14 min and the IC50 (human recombinant MAGL) was greater than 10000 nM. The IC50 (human recombinant FAAH; [4]) was 492 nM and the IC50 (human recombinant FAAH; [5]) was 100 to 1000 nM.

With `O=C(Oc1cccc(-c2cncc(-c3nnco3)c2)c1)N1CC2(CCC2)C1` [Example 146, 3-(5-(1,3,4-oxadiazol-2-yl)pyridin-3-yl)phenyl 2-azaspiro[3.3]heptane-2-carboxylate] the solubility [1] was 82.7 µM (≈ 30 µg/mL), the half-life at 1 μM [2] was 186 min and the “plasma stability and/or aqueous solubility compared to reference compound URB597” value [2] was “improved plasma stability, improved aqueous solubility, or improved plasma stability and aqueous solubility”. The IC50 (human recombinant MAGL) was greater than 10000 nM, the IC50 (human recombinant FAAH; [4]) was 401 nM and the IC50 (human recombinant FAAH; [5]) was 401 nM.

In the case of `O=C(NC1CCCCC1)Oc1ccc(O)c(-c2cncc(-c3nnco3)c2)c1` [Example 158, 3-(5-(1,3,4-oxadiazol-2-yl)pyridin-3-yl)-4-hydroxyphenyl cyclohexylcarbamate], the solubility [1] is reported as 92.5 µM (≈ 35.2 µg/mL), the “Cmax exposure relative to URB597” value ([3]; 10 mg/kg PO vs URB597 at 250 mg/kg) is reported as roughly 10 × and the AUC ([3]; Sprague Dawley, plasma, rat (SD, male), IV 1.0 mg/kg, read-out: AUC0-Y (ng h/mL), IV) is reported as 1340 ng·h/mL. The clearance ([3]; Sprague Dawley, plasma, rat (SD, male), IV 1.0 mg/kg, read-out: CLp) was 12 mL/min/kg, the Vd ([3]; Sprague Dawley, plasma, rat (SD, male), IV 1.0 mg/kg, read-out: Vdss) was 0.62 L/kg and the half-life ([3]; Sprague Dawley, plasma, rat (SD, male), IV 1.0 mg/kg, read-out: t1/2 (h), IV (converted)) was 0.31 h. The “improvement in oral exposure maximums compared to URB597” value ([3]; dose-adjusted (25× lower dose, 10× Cmax)) was roughly 250 ×, the Kp at 0.5 h ([3]; male, Sprague Dawley, brain, rat, 0.5 h, read-out: Brain/Plasma ratio (0.5 h)) was 0.01 and the Kp at 1 h ([3]; male, Sprague Dawley, brain, rat, 1 h, read-out: Brain/Plasma ratio (1 h)) was 0.02. The Tmax ([3]; male, Sprague Dawley, plasma, rat, PO 10.0 mg/kg) was 30 min, the AUC ([3]; male, Sprague Dawley, plasma, rat, PO 10.0 mg/kg, read-out: AUC0-Y (ng h/mL), PO) was 7050 ng·h/mL and the Cmax ([3]; male, Sprague Dawley, plasma, rat, PO 10.0 mg/kg, read-out: Cmax) was 5.05 µM. For the same compound, the Cmax ([3]; male, Sprague Dawley, plasma, rat, PO 10.0 mg/kg, read-out: Cmax (ng/mL)) was 1920 ng/mL, the half-life ([3]; male, Sprague Dawley, plasma, rat, PO 10.0 mg/kg, read-out: t1/2 (h), PO (converted)) was 2.85 h and the bioavailability ([3]; male, Sprague Dawley, rat, plasma, oral, 10 mg/kg, rat, PO 10.0 mg/kg vs IV 1.0 mg/kg, read-out: F (%) oral bioavailability) was 53%. For the same compound, the “Co” value ([3]; rat (SD, male), IV 1.0 mg/kg) was 4829 ng/mL, the “Co [uM]” value ([3]; rat (SD, male), IV 1.0 mg/kg) was “[12.7 uM]” and the “AUC0-Y (ng h/mL), PO” value ([3]; rat, PO 10.0 mg/kg) was 7054 ng·h/mL. For the same compound, the “t1/2 (h), PO” value ([3]; rat, PO 10.0 mg/kg) was 2.85 h, the “F (%) oral bioavailability” value ([3]; rat, PO 10.0 mg/kg vs IV 1.0 mg/kg) was greater than 50% and the half-life at 1 μM [2] was 350 min. For the same compound, the “plasma stability and/or aqueous solubility compared to reference compound URB597” value [2] was “improved plasma stability, improved aqueous solubility, or improved plasma stability and aqueous solubility”, the IC50 (human recombinant MAGL) was greater than 50000 nM and the IC50 (human recombinant FAAH; [4]) was 127 nM. It also gave an IC50 (human recombinant FAAH; [5]) of 124 nM.

For `O=C(NC1CCCCCC1)Oc1cc(O)cc(-c2cncc(-c3nnco3)c2)c1` [Example 165, 3-(5-(1,3,4-oxadiazol-2-yl)pyridin-3-yl)-5-hydroxyphenyl cycloheptylcarbamate], the solubility [1] was 22.6 µM (≈ 8.91 µg/mL), the half-life at 1 μM [2] was 28 min and the IC50 (human recombinant MAGL) was greater than 10000 nM. It also gave an IC50 (human recombinant FAAH; [4]) of 25.8 nM and an IC50 (human recombinant FAAH; [5]) of 25.8 nM.

For `COc1cc(OC(=O)NC2CCCCCC2)cc(-c2cncc(-c3nnco3)c2)c1` [Example 179, 3-(5-(1,3,4-oxadiazol-2-yl)pyridin-3-yl)-5-methoxyphenyl cycloheptylcarbamate], the solubility [1] was 9.2 µM (≈ 3.76 µg/mL), the half-life at 1 μM [2] was 18 min and the IC50 (human recombinant MAGL) was 10000 to 50000 nM. It also gave an IC50 (human recombinant FAAH; [4]) of 91.1 nM and an IC50 (human recombinant FAAH; [5]) of 91.1 nM.

In the case of `CSc1ccc(OC(=O)NC2CCCCCC2)cc1-c1cncc(-c2nnco2)c1` [Example 191, 3-(5-(1,3,4-oxadiazol-2-yl)pyridin-3-yl)-4-(methylthio)phenyl cycloheptylcarbamate], the solubility [1] is reported as 11.9 µM (≈ 5.05 µg/mL), the half-life at 1 μM [2] is reported as 31 min and the “plasma stability and/or aqueous solubility compared to reference compound URB597” value [2] is reported as “improved plasma stability, improved aqueous solubility, or improved plasma stability and aqueous solubility”. It also gave an IC50 (human recombinant MAGL) greater than 10000 nM, an IC50 (human recombinant FAAH; [4]) of 153 nM and an IC50 (human recombinant FAAH; [5]) of 153 nM.

`O=C(NC1CCCCCC1)Oc1cc(F)cc(-c2cncc(-c3nnco3)c2)c1` [Example 198, 3-(5-(1,3,4-oxadiazol-2-yl)pyridin-3-yl)-5-fluorophenyl cycloheptylcarbamate] showed a solubility [1] of 5.7 µM (≈ 2.26 µg/mL), a half-life at 1 μM [2] of 4.7 min and an IC50 (human recombinant MAGL) greater than 10000 nM. It also gave an IC50 (human recombinant FAAH; [4]) of 132 nM and an IC50 (human recombinant FAAH; [5]) of 132 nM.

In the case of `O=C(NC1CCCCCC1)Oc1cccc(-c2cncc(-c3ncn[nH]3)c2)c1` [Example 225, 3-(5-(1H-1,2,4-triazol-5-yl)pyridin-3-yl)phenyl cycloheptyl carbamate], the solubility [1] is reported as 8.6 µM (≈ 3.25 µg/mL), the half-life at 1 μM [2] is reported as 47 min and the “plasma stability and/or aqueous solubility compared to reference compound URB597” value [2] is reported as “improved plasma stability, improved aqueous solubility, or improved plasma stability and aqueous solubility”. It also gave an IC50 (human recombinant MAGL) of roughly 10000 nM, an IC50 (human recombinant FAAH; [4]) of 176 nM and an IC50 (human recombinant FAAH; [5]) of 176 nM.

With `O=C(NC1CCCCCC1)Oc1ccc(O)c(-c2cncc(-c3ncn[nH]3)c2)c1` [Example 231, 3-(5-(1H-1,2,4-triazol-5-yl)pyridin-3-yl)-4-hydroxyphenyl cycloheptylcarbamate] the solubility [1] was 78.8 µM (≈ 31 µg/mL), the half-life at 1 μM [2] was 634 min and the “plasma stability and/or aqueous solubility compared to reference compound URB597” value [2] was “improved plasma stability, improved aqueous solubility, or improved plasma stability and aqueous solubility”. For the same compound, the IC50 (human recombinant MAGL) was greater than 10000 nM, the IC50 (human recombinant FAAH; [4]) was 137 nM and the IC50 (human recombinant FAAH; [5]) was 137 nM.

For `O=C(NC1CCCCC1)Oc1cccc(-c2cncc(-c3nnco3)n2)c1` [Example 267, 3-(6-(1,3,4-oxadiazol-2-yl)pyrazin-2-yl)phenyl cyclohexylcarbamate], the solubility [1] was 73.6 µM (≈ 26.9 µg/mL), the half-life at 1 μM [2] was 12 min and the IC50 (human recombinant MAGL) was greater than 10000 nM. For the same compound, the IC50 (human recombinant FAAH; [4]) was 140 nM and the IC50 (human recombinant FAAH; [5]) was 140 nM.
